Assay results taken from ChEMBL document CHEMBL5050844 (2019).

Key:
[1] = target: T1, E3 ubiquitin-protein ligase CBL-B (Homo sapiens, UniProt Q13191); assay: Inhibition of N-terminal Avi-tagged human CBL-B (36 to 427 residues) incubated with 60 nM Src kinase for 1.5 hrs followed by incubation with fluorescently labeled UbcH5B-Ub for 1 hr and measured by TR-FRET assay; type: single protein
[2] = Induction of anti-CD3 antibodies-stimulated human T cell activation at 1 uM assessed fold increase in CD25 expression measured by ELISA assay; type: functional, T cell line; further: reference of the scale not given here
[3] = Induction of anti-CD3 antibodies-stimulated human CD8+ T cell activation in immunocompetent mouse assessed fold increase in CD25 expression at 90 mg/kg, po administered twice a day; type: functional; further: reference of the scale not given here
[4] = Induction of anti-CD3/CD28 antibodies-stimulated human T cell activation at 1 uM assessed fold increase in IL-2 secretion measured by ELISA assay; type: functional, T cell line
[5] = Induction of anti-CD3 antibodies-stimulated human CD4+ T cell activation in immunocompetent mouse assessed fold increase in CD25 expression at 135 mg/kg, po administered twice a day; type: functional; further: reference of the scale not given here
[6] = Induction of anti-CD3/CD28 antibodies-stimulated human T cell activation at 0.3 uM assessed fold increase in IL-2 secretion measured by ELISA assay; type: functional, T cell line
[7] = Induction of anti-CD3/CD28 antibodies-stimulated human T cell activation at 1 uM assessed fold increase in CD25 expression measured by ELISA assay; type: functional, T cell line
[8] = Induction of anti-CD3/CD28 antibodies-stimulated human T cell activation at 0.3 uM assessed fold increase in CD25 expression measured by ELISA assay; type: functional, T cell line
[9] = Induction of anti-CD3 antibodies-stimulated human T cell activation at 1 uM assessed fold increase in IL-2 secretion measured by ELISA assay; type: functional, T cell line; further: reference of the scale not given here
[10] = Induction of anti-CD3/CD28 antibodies-stimulated human anergic T cell activation at 0.37 uM assessed fold increase in IFN-gamma secretion measured by ELISA assay; type: functional, T cell line
[11] = Induction of allogenic human T cell activation at 10 uM assessed fold increase in cell proliferation; type: functional, T cell line
[12] = Induction of activation of human CD56+ CD3- NK cells co-cultured with human K562 cells in 1:1 ratio and assessed as increase in IFN-gamma secretion at 0.625 uM measured by ELISA assay; type: functional, Natural killer cell
[13] = Induction of anti-CD3/CD28 antibodies-stimulated human anergic T cell activation at 10 uM assessed fold increase in IFN-gamma secretion measured by ELISA assay; type: functional, T cell line
[14] = Induction of activation of human CD56+ CD3- NK cells co-cultured with human K562 cells in 1:1 ratio and assessed as increase in TNF-alpha secretion at 2.5 uM measured by ELISA assay; type: functional, Natural killer cell
B cell = assay: Induction of anti-IgM-stimulated human CD20+ B cell activation at 10 to 1000 uM assessed as increase in CD69 expression measured as mean fluorescence intensity AUC by flow cytometry analysis; type: functional, cell-based; settings: dose 10-1000 µM
[15] = Induction of anti-CD3/CD28 antibodies-stimulated human anergic T cell activation at 1.11 uM assessed fold increase in IFN-gamma secretion measured by ELISA assay; type: functional, T cell line
[16] = Induction of anti-CD3/CD28 antibodies-stimulated human T cell activation at 4 uM assessed fold increase in CD25 expression measured by ELISA assay; type: functional, T cell line
[17] = Induction of activation of human CD56+ CD3- NK cells co-cultured with human K562 cells in 1:1 ratio and assessed as increase in IFN-gamma secretion at 10 uM measured by ELISA assay; type: functional, Natural killer cell
[18] = Induction of anti-CD3 antibodies-stimulated human T cell activation at 8 uM assessed fold increase in CD25 expression measured by ELISA assay; type: functional, T cell line; further: reference of the scale not given here
[19] = Induction of allogenic human T cell activation at 3 uM assessed fold increase in cell proliferation; type: functional, T cell line
[20] = Induction of anti-CD3 antibodies-stimulated human exhausted T cell activation assessed fold increase in IL-2 secretion measured by ELISA assay; type: functional, T cell line; further: reference of the scale not given here
[21] = Induction of anti-CD3 antibodies-stimulated human T cell activation at 8 uM assessed fold increase in IL-2 secretion measured by ELISA assay; type: functional, T cell line; further: reference of the scale not given here
[22] = Induction of activation of human CD56+ CD3- NK cells co-cultured with human K562 cells in 1:1 ratio and assessed as increase in TNF-alpha secretion at 10 uM measured by ELISA assay; type: functional, Natural killer cell
[23] = Induction of anti-CD3 antibodies-stimulated human exhausted T cell activation assessed fold increase in GM-CSF secretion measured by ELISA assay; type: functional, T cell line; further: reference of the scale not given here
[24] = Induction of activation of human CD56+ CD3- NK cells co-cultured with human K562 cells in 1:1 ratio and assessed as increase in IFN-gamma secretion at 2.5 uM measured by ELISA assay; type: functional, Natural killer cell
[25] = Induction of anti-CD3/CD28 antibodies-stimulated human T cell activation at 4 uM assessed fold increase in IL-2 secretion measured by ELISA assay; type: functional, T cell line
[26] = Induction of activation of human CD56+ CD3- NK cells co-cultured with human K562 cells in 1:1 ratio and assessed as increase in TNF-alpha secretion at 0.625 uM measured by ELISA assay; type: functional, Natural killer cell
[27] = Induction of anti-CD3 antibodies-stimulated human exhausted T cell activation assessed fold increase in IFN-gamma secretion measured by ELISA assay; type: functional, T cell line; further: reference of the scale not given here
[28] = Induction of anti-CD3 antibodies-stimulated human exhausted CD4+ T cell activation assessed fold increase in CTLA4 expression measured by flow cytometry analysis; type: functional, T cell line; further: reference of the scale not given here
[29] = Induction of anti-CD3 antibodies-stimulated human exhausted CD8+ T cell activation assessed fold increase in CTLA4 expression measured by flow cytometry analysis; type: functional, T cell line; further: reference of the scale not given here
[30] = target: T1, E3 ubiquitin-protein ligase CBL-B; assay: Binding affinity towards N-terminal biotinylated Avi-tagged human CBL-B (36 to 427 residues) measured by surface plasmon resonance assay

T1 sequence (Q13191 whole entry, the tested form may be a part): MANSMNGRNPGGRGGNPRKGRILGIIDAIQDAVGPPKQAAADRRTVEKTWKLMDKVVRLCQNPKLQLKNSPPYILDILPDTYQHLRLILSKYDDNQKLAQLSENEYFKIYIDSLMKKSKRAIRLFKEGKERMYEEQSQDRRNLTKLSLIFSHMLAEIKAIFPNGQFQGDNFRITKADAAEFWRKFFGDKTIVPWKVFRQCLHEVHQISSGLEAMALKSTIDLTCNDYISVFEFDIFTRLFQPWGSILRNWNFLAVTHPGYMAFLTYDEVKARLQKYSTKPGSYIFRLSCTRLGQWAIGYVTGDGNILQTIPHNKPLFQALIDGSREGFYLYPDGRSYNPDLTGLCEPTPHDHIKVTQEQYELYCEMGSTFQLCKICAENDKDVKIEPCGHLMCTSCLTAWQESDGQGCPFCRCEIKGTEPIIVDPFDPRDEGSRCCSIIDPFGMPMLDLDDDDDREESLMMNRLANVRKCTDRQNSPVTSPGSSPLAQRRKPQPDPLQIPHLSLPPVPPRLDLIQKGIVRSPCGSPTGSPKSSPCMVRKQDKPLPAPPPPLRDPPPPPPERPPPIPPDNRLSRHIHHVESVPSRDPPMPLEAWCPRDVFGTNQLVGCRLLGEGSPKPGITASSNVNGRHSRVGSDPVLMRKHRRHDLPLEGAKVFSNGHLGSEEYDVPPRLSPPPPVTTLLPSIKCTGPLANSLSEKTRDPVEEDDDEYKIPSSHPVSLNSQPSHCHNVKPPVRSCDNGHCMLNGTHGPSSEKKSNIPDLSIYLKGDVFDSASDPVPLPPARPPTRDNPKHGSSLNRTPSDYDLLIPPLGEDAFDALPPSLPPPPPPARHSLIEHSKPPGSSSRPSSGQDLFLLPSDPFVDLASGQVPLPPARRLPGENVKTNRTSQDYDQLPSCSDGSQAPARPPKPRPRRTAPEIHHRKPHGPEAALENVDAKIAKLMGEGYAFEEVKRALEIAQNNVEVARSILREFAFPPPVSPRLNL

| Compound | IC50 [1] [nM] | fold change (FC) [2] | fold change (FC) [3] | fold change (FC) [4] | fold change (FC) [5] | fold change (FC) [6] | fold change (FC) [7] | fold change (FC) [8] | fold change (FC) [9] | fold change (FC) [16] | fold change (FC) [18] | fold change (FC) [21] | fold change (FC) [25] | other results |
| --- | --- | --- | --- | --- | --- | --- | --- | --- | --- | --- | --- | --- | --- | --- |
| C[C@H](c1cc2c(c(C(F)(F)F)c1)CN(c1cccc(C3(Cc4nncn4C)COC3)c1)C2=O)N1CCC(C)(F)CC1 | < 100 | >=1.001 | 1 | >=7.5 | >2.5 | >=7.5 | >=1.76 | >=1.76 | >=0.201 |  |  |  |  |  |
| Cn1cnnc1CC1(c2cccc(N3Cc4c(cc(CN5CCC(F)CC5)cc4C(F)(F)F)C3=O)c2)COC1 | < 100 |  | 1 |  | 1.51 |  |  |  |  |  |  |  |  |  |
| CN1CC2CCC(C1)N2c1cc2c(c(C(F)(F)F)c1)CN(c1cccc(C3(Cc4nncn4C)COC3)c1)C2=O | < 100 | >=1.001 | 1 | >=7.5 | 1 | >=7.5 | 1.31 | 1.31 | >=0.201 |  |  |  |  |  |
| C[C@@H](c1cc2c(c(C(F)(F)F)c1)CN(c1cccc(C3(Cc4nncn4C)COC3)c1)C2=O)N1CC2CC2C1 (stereo partly specified) | < 100 | >=1.001 | 1 | >=7.5 | 1 | >=7.5 | 1.31 | 1.31 | >=0.201 |  |  |  |  |  |
| Cn1cnnc1C(F)(F)[C@](C)(F)c1cccc(N2Cc3c(cc(N4CCNCC4)cc3C(F)(F)F)C2=O)c1 | < 100 | >=1.001 |  | >=7.5 |  | 2.51 | 1.51 | 1.31 | >=0.201 | 1.51 | 0.801 | 0.051 | >=7.5 | fold change (FC) [10]: <=2.5; fold change (FC) [11]: <=2; fold change (FC) [12]: 1.01; fold change (FC) [13]: 2.51; fold change (FC) [14]: 2.01; AUC (B cell): 0.5; fold change (FC) [15]: 2.51; fold change (FC) [17]: 2.01; fold change (FC) [19]: <=2; fold change (FC) [20]: >3.01; fold change (FC) [22]: 2.01; fold change (FC) [23]: <=1.4; fold change (FC) [24]: 2.01; fold change (FC) [26]: 2.01; fold change (FC) [27]: 1.41 |
| C[C@H](Cc1nncn1C)c1ccnc(NC(=O)c2cccc(C(F)(F)F)n2)c1 |  | <=0.6 |  | 2.51 |  | 2.51 | 1.01 | 1.01 | <=0.05 | 1.01 | 0.801 | 0.051 | >=7.5 | fold change (FC) [10]: <=2.5; fold change (FC) [11]: <=2; fold change (FC) [12]: 1.01; fold change (FC) [28]: <=1.4; fold change (FC) [13]: <=2.5; fold change (FC) [29]: <=1.4; fold change (FC) [14]: 1.01; AUC (B cell): 0.5; fold change (FC) [15]: <=2.5; fold change (FC) [17]: 2.01; fold change (FC) [19]: <=2; fold change (FC) [20]: <=2.5; fold change (FC) [22]: 1.01; fold change (FC) [23]: <=1.4; fold change (FC) [24]: <=1; fold change (FC) [26]: 1.01; fold change (FC) [27]: <=1.4 |
| Cn1cnnc1CC1(c2cccc(N3Cc4c(cc(CN5C[C@H]6C[C@H]6C5)cc4C(F)(F)F)C3=O)c2)COC1 | < 100 | >=1.001 | 1 | >=7.5 | 1 | >=7.5 | 1.31 | 1.31 | >=0.201 | 1.51 | >=1.001 | >=0.201 | >=7.5 |  |
| Cn1cnnc1CC1(c2cccc(N3Cc4c(cc(CN5CCC[C@H](F)C5)cc4C(F)(F)F)C3=O)c2)COC1 | < 100 | >=1.001 | 1 | >=7.5 | 1 | >=7.5 | 1.31 | 1.31 | >=0.201 |  |  |  |  |  |
| C[C@H](Cc1nncn1C)c1cccc(N2Cc3c(cc(CN4CCC(F)(F)C4)cc3C(F)(F)F)C2=O)c1 | < 100 | >=1.001 |  | 5 |  | 2.51 | 1.01 | 1.01 | 0.151 | 1.31 | >=1.001 | >=0.201 | >=7.5 | Kd [30]: < 100 nM |
| Cn1cnnc1CC1(c2cccc(N3Cc4c(cc(CN5CC6(CC6)C5)cc4C(F)(F)F)C3=O)c2)COC1 | < 100 | >=1.001 | 1 | >=7.5 | 1.51 | >=7.5 | 1.31 | 1.31 | >=0.201 |  |  |  |  |  |
